Measured values from US10781229B2, “Tris- or neopentyl glycol-based amphiphiles and uses thereof” (Industry-University Cooperation Foundation Hanyang …, priority 2015, dated 2020).

Key:
MelBSt = molecular target: T1, MelBSt (Salmonella typhimurium, UniProt P30878); test: Trp to D2G FRET reversal by melibiose, functional state of solubilized MelBSt; type: biochemical; conditions: 1.0% by weight, solubilized at 23° C. for 30 minutes
T1 construct: made in house; host or cells: E. coli DW2, right-side-out membrane vesicles
Method: So as to investigate functional states of MelB proteins dissolved by amphipathic molecules, Førster resonance energy transfer (FRET) to 2′-(N-dansyl)aminoalkyl-1-thio-β-D-galactopyranoside (D^2G), as a fluorescence ligand, was measured in tryptophan (Trp). […] However, if a protein dissolved by an amphipathic molecule has activity, melibiose substitutes for the coupled D^2G molecule upon addition of the melibiose and thus energy transfer no longer occurs, thereby decreasing fluorescence intensity. Accordingly, the activity of the MelB protein dissolved in DDM or NDT-C11 can be determined by whether reversal of D^2G FRET occurs due to melibiose in Trp. Therefore, the FRET measurement method is an efficient method to measure the membrane protein structural stabilization ability of an amphipathic molecule.
In particular, a right-side-out (RSO) membrane vesicle was prepared by osmotic lysis of an E. coli DW2 cell containing MelBSt or MelBEc and re-suspended with 100 mM KPi (pH 7.5), followed by storing at −80° C. D^2G was provided by H. Ronald Kaback and Gerard Leblanc. A protein concentration of an RSO membrane vesicle in 100 mM KPi, pH 7.5, and 50 mM NaCl was 1 mg/ml concentration. […] An emission wavelength of MelBEc was measured at 465 nm and an emission wavelength of MelBSt was measured at 490 nm. […] Accordingly, fluorescence intensity is decreased. […]

LeuT E192C^TMR = LeuT E192C^TMR (Aquifex aeolicus, UniProt O67854, E192C); test: Site-directed fluorescence (iodide) quenching of LeuT E192C-TMR, Stern-Volmer analysis; type: biochemical; conditions: for Δ KSV: leucine-induced change of iodide accessibility of TMR, CMC+0.04% by weight detergent, means [s.e.m. interval]; for Ksv when leucine is absent: no leucine, LeuT E192C-TMR in CMC+0.04% by weight detergent
Text: A principle of this experiment is as follows: A cysteine residue was inserted into a 192th LeuT site (E192C), followed by coupling with a thiol-reactive fluorophore (tetramethylrhodamine-5-maleimide, TMR). The prepared LeuT E192C^TMR, as TMR-coupled LeuT, is an excellent system to sensitively monitor protein structure change in response to ligand coupling. […] Due to such change, TMR fluorescence molecules exposed to an aqueous solution become closer to iodide (I^−), as a quencher dissolved in water, whereby strong fluorescence quenching is caused. TMR quenching intensity by leucine coupling may be represented by Stern-Volmer plotting and thus structural flexibility of a protein may be directly measured. Ligand bindability of the TMR-labeled transporter was measured using SPA while increasing the amount of [^3H]leucine.
In particular, structure, expression, purification, and fluorescence labeling were performed according to the following methods. In accordance with a method disclosed in a paper published by C. B. Billesbolle, et al. (J. Biol. Chem. 2015, 290, 26725-26738), a leucine transporter mutant (LeuT E192C^TMR) was produced and purification and labeling were carried out. In summary, a residue of the E192 was mutated with cysteine using QuikChange (Agilent Technologies) such that fluorescence coupling was accomplished by maleimide labeling. The LeuT mutant was expressed in E. coli C41 (DE3). A membrane of DE3 was disrupted and LeuT was solubilized with 1% (w/v) DDM. Subsequently, LeuT solubilized with the amphipathic molecule was fixed to a Chelating Sepharose Fast Flow resin (GE Healthcare, Little Chalfont, UK), followed by washing with tetramethylrhodamine-5-maleimide (TMR, Life Technologies, Carlsbad, Calif., USA) at 4° C. for 16 hours. Subsequently, LeuT was eluted with a buffer containing 300 mM imidazole, 20 mM Tris-HCl (pH 8.0), 1 mM NaCl, 199 mM KCl, and 0.05% DDM.
Fluorescence spectroscopy was carried out according to the following method. A fluorescence-based experiment was carried out by diluting 0.5 μg ml^−1 of fluorescence-labeled LeuT with buffer A supplemented with CMC+0.04% by weight of DDM, MNG-3 or NDT-C11. Leucine was separately added to specimen aliquots of LeuT for each concentration and incubated for one hour in a room temperature shaker. Steady-state fluorescence intensities were recorded with a FluoroMax4 (Horiba Scientific, Edison, N.J., USA) at λem=572 nm and excitation source at λex=552 nm at 25° C. Quencher-titration was carried out by successive additions of small specimen aliquots containing 1 M KI into buffer A supplemented with 10 mM Na2S2O3. Fluorescence intensities (F) were corrected for sample dilution and normalized to the initial intensity (F0) of a sample. All data was analyzed by linear-(Stern-Volmer plot) or nonlinear regression in GraphPad Prism 6.0 (GraphPad Software). The degree of iodide (I^−) accessibility was obtained from the following Stern-Volmer equation: F0/F=1+Ksv×[Q], where F0/F is normalized fluorescence quenching, Ksv is a Stern-Volmer constant, and [Q] is quencher concentration. When means are calculated as a log, the means are shown as pIC50 and the [s.e.m. interval] from pIC50±s.e.m.
Values of radioligand binding constants were calculated through SPA saturation binding experiments. Values of iodide quenching-response constants and ΔKSV were calculated from a site-directed fluorescence quenching spectroscopy. The affinity (Kd) is shown as means±s.e.m and ΔKSV is shown as means [s.e.m. interval]. All data is shown as means of three to four independent experiments.

[1] = Hydrodynamic radius and size distribution of micelles by dynamic light scattering (DLS); type: physicochemical
Method: A method of measuring the radius of a micelle is not specifically limited and may be any method generally known in the art. For example, the radius may be measured by a dynamic light scattering (DLS) experiment.
In particular, critical micellar concentrations (CMCs) were measured using hydrophobic fluorescence staining and diphenylhexatriene (DPH), and hydrodynamic radii (Rh) of micelles formed of each material were measured by a dynamic light scattering (DLS) experiment. Measured results are compared to values of DDM as an existing amphipathic molecule (detergent).
Meanwhile, size distributions of the micelles formed of TDTs and NDTs were measured using DLS. Results are illustrated in FIG. 5. TDTs or NDTs were respectively used in an amount of 0.5% by weight. As a result, micelles of TDTs or NDTs were measured as forming a single community.

T1 sequence (P30878 whole entry): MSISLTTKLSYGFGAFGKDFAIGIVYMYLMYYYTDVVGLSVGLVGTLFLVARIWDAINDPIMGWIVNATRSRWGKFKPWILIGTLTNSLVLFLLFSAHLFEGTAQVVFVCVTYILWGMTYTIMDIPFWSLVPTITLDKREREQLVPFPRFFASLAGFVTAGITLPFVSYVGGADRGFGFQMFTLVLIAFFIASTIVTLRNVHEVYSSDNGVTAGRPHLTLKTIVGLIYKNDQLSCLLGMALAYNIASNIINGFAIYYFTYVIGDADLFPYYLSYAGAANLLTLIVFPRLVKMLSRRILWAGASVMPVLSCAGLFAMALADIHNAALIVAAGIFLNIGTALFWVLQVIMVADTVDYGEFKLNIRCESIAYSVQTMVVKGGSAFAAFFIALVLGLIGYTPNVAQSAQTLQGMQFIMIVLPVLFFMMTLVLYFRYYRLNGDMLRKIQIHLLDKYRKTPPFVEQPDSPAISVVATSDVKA

Row | Compound | Functional state of solubilized MelBSt (melibiose binding, FRET) (MelBSt) | Δ KSV (LeuT E192C^TMR) [M⁻¹] | Ksv when leucine is absent (LeuT E192C^TMR) | Rh (hydrodynamic radius of micelles) [1] [nm] | Structural fluidity of the LeuT protein (LeuT E192C^TMR; conclusion from ΔKsv)
1 | CCCCCCCCCCCCOC1OC(CO)C(OC2OC(CO)C(O)C(O)C2O)C(O)C1O [DDM, n-dodecyl-β-D-maltopyranoside, reference compound] | enable production of functional MelBSt proteins | 1.1 | up to 1.6 | 3.4 ± 0.0 | 
2 | CCCCCCCCCCCC(CCCCCCCCCCC)COCC(CO[C@@H]1OC(CO)[C@@H](O)C(O)C1O)(CO[C@@H]1OC(CO)[C@@H](O)C(O)C1O)CO[C@@H]1OC(CO)[C@@H](O)C(O)C1O (stereo partly drawn) [NDT-C11] | enable production of functional MelBSt proteins | 0.9 | up to 2.5 | 3.5 ± 0.0 | satisfactorily maintains the structural fluidity
